What all share (type): cell-based
Assay [1] concerns RNASEH2B+/+ and RNASEH2B−/− cells. Kind of assay: Synergy between ATR inhibitor and PARP inhibitor in RNASEH2B+/+ and RNASEH2B−/− cells. Conditions: combination of ATR inhibitor and PARP inhibitor. From the text:
An ATR inhibitor (e.g., compound 121) may synergize with a PARP inhibitor (e.g., 5-[4-[(7-ethyl-6-oxo-5H-1,5-naphthyridin-3-yl)methyl]piperazin-1-yl]-N-methyl-pyridine-2-carboxamide) in RNASEH2B+/+ and RNASEH2B−/− cells. Importantly, in RNASEH2B−/− cells, synergy (e.g., maximum synergy) may be achieved at lower concentrations of an ATR inhibitor (e.g., compound 121) and lower concentrations of the PARP inhibitor (e.g., 5-[4-[(7-ethyl-6-oxo-5H-1,5-naphthyridin-3-yl)methyl]piperazin-1-yl]-N-methyl-pyridine-2-carboxamide) than in RNASEH2B+/+ cells. As a result, the apparent IC50 of the PARP inhibitor may shift in the presence of the ATR inhibitor (e.g., compound 121).
In addition to selecting a sensitized genetic background, tolerability of the combination treatment with an ATR inhibitor and PARP inhibitor can be improved by optimizing dosing schedules (Fang et al., Cancer Cell, 35:851-867, 2019). To guide the combined dosing of the ATR inhibitor (e.g., compound 121) and the PARP inhibitor (e.g., 5-[4-[(7-ethyl-6-oxo-5H-1,5-naphthyridin-3-yl)methyl]piperazin-1-yl]-N-methyl-pyridine-2-carboxamide) in RNASEH2B-deficient tumor cells, a continuous longer (e.g., 168 h) concomitant treatment of RNASEH2B+/+ and −/− cells with both compounds may be compared to a shorter (e.g., either a 48 or 72 h) treatment followed by removal of compounds and growth in drug-free media. […]

The test system of assay [2] is isogenic cell lines lacking CDK12 or BRCA2. As to the kind of experiment: 48-hr combination treatment of isogenic cell lines lacking CDK12 or BRCA2. As to conditions: 48-hr treatment with combination. An excerpt:
The optimized dosing schedule may be applicable to cells carrying mutations not only in RNASEH2B, but additional genes.

Assay [3] relates to tumor cells that employ the Alternative Lengthening of Telomeres (ALT) mechanism. Kind of assay: Combination against ALT tumor cells. Conditions: combination of ATR inhibitor with PARP inhibitor. An excerpt: In addition to tumors carrying the above-mentioned genetic alterations, the combination of ATR inhibitors (e.g., Compound 121) with PARP inhibitors (e.g., 5-[4-[(7-ethyl-6-oxo-5H-1,5-naphthyridin-3-yl)methyl]piperazin-1-yl]-N-methyl-pyridine-2-carboxamide) may be effective against tumor cells that employ the Alternative Lengthening of Telomeres (ALT) mechanism.

Experimental findings from patent publication US20240173330A1, “USE OF ATR INHIBITORS IN COMBINATION WITH PARP INHIBITORS FOR TREATING CANCER” (Repare Therapeutics Inc., priority 2021, published 2024) are described below.

SMILES strings stand for the structures.

Take `CCc1cc2ncc(CN3CCN(c4ccc(C(=O)NC)nc4)CC3)cc2[nH]c1=O` [5-[4-[(7-ethyl-6-oxo-5H-1,5-naphthyridin-3-yl)methyl]piperazin-1-yl]-N-methyl-pyridine-2-carboxamide]: in assay [1], the “synergy of ATR inhibitor with PARP inhibitor” value is listed as “synergize”. The synergistic sensitization entry in assay [2] is “synergistically sensitize”. For the same compound, the “effectiveness of combination against ALT tumor cells” value in assay [3] is on record as “effective”.

As to `C[C@@H]1COCCN1c1cc([C@@]2(O)C[C@H]3CC[C@@H](C2)O3)c2cnn(-c3cc[nH]n3)c2n1` [compound 121], in assay [1], the “synergy of ATR inhibitor with PARP inhibitor” value is “synergize”. In addition, the synergistic sensitization entry in assay [2] is “synergistically sensitize”. Also, the “effectiveness of combination against ALT tumor cells” value in assay [3] is listed as “effective”.
